Laboratory results taken from article PMC3639963, “A New Class of Small Molecule Inhibitor of BMP Signaling” (PLoS ONE, 2013).
Values joined by “and” are separate entries in the source; they are usually repeats but may differ in a detail not shown here. Equal entries are not always repeated.

Assays:
[1] = tested on: Tg(BRE:mRFP) transgenic zebrafish embryos; test: Dorsalization of zebrafish embryos; type: in vivo; conditions: treated from the 8- to 16-cell stage, scored at 26 hours
Description: The zebrafish colony was maintained as described and embryos were raised at 28.5°C. The Tg(BRE:mRFP) transgenic line (also called BRE-mRFP) has been described previously and expresses mRFP in response to BMP signaling. […] Inhibitor stocks were diluted in DMSO and then further diluted in fish water to give the required inhibitor concentrations. To minimize the amount of inhibitors used, experiments were performed in 24-well plates with approximately 20 embryos per well in a volume of 1 mL. The chemical treatment was applied by immersing 8- to 16-cell stage Tg(BRE:mRFP) embryos (dorsalization experiment) or 12 hours old […]) embryos (ISV experiment) in the fish water supplemented with DMSO or the chemical inhibitors. For the ISV experiment, embryos were manually dechorionated after bud stage before treatment. Embryos were scored and photographed at 26 or 48 hours.

[2] = tested on: mRFP under control of a BMP response element; test: Western blot for mRFP in Tg(BRE:mRFP) embryos; type: in vivo, zebrafish; conditions: 26 hours old embryos
Description: Inhibitor stocks were diluted in DMSO and then further diluted in fish water to give the required inhibitor concentrations. To minimize the amount of inhibitors used, experiments were performed in 24-well plates with approximately 20 embryos per well in a volume of 1 mL. The chemical treatment was applied by immersing 8- to 16-cell stage Tg(BRE:mRFP) embryos (dorsalization experiment) or 12 hours old Tg(fli1a:eGFP) embryos (ISV experiment) in the fish water supplemented with DMSO or the chemical inhibitors. For the ISV experiment, embryos were manually dechorionated after bud stage before treatment. Embryos were scored and photographed at 26 or 48 hours.
Ten non-dechorionated 26 hours old treated Tg(BRE:mRFP) embryos were snap frozen on dry ice and stored at −80°C. Protein extracts were prepared as described previously for Xenopus embryos. Extraction buffer was freshly prepared. 10 µL per embryo of the protein extract buffer was used to lyse the embryos using a plastic pestle and a pellet pestle motor (Kontes). 40 µg (∼ 1 embryo equivalent) of protein extract was loaded per lane on a 12.5% SDS-PAGE gel. The rabbit anti-mRFP (Invitrogen, R10367) and the goat anti-MCM6 (Santa Cruz, sc-9843) antibodies were used for Western blots.

GRK7 = target: T1, GRK7 (Homo sapiens, UniProt Q8WTQ7); test: Nanosyn kinase profiling; type: biochemical; conditions: read-out: Percentage inhibition; for inhibition at 0.1 µM: 0.1 µM inhibitor; for inhibition at 1 µM: 1 µM inhibitor
T1 construct: purchased Nanosyn (enzymatic panel); SGC in-house recombinant human kinases (DSF panel); Invitrogen (ALK1-6)
T1 sequence (Q8WTQ7 1-553): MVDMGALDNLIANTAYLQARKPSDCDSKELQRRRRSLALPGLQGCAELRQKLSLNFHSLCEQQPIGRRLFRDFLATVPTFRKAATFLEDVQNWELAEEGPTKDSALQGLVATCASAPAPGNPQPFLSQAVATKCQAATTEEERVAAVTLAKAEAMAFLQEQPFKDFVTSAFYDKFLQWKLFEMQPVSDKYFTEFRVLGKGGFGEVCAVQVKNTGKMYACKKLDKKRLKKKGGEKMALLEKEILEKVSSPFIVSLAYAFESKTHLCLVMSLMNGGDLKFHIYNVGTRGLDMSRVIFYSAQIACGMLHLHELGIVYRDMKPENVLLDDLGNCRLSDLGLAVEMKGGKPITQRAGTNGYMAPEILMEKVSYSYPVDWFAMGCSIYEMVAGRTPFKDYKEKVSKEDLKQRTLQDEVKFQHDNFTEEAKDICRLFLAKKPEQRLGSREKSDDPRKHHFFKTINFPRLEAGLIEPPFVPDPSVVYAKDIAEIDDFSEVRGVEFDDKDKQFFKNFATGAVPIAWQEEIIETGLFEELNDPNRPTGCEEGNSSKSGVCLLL
Procedure, shortened: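 Percent inhibition of each kinase was measured with the inhibitor at 0.1 µM and at 1 µM, as part of a 200-kinase human selectivity panel.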

FMS = target: T2, FMS (Homo sapiens, UniProt P07333); test: Nanosyn kinase profiling; type: biochemical; conditions: read-out: Percentage inhibition
T2 construct: purchased Nanosyn (enzymatic panel); SGC in-house recombinant human kinases (DSF panel); Invitrogen (ALK1-6)
Description: (§1) Percentage inhibition was determined for each kinase at both 0.1 µM and 1 µM inhibitor concentration (supplemental Table S2).
(§2) Inhibitor selectivity profiling against 200 human kinases at 0.1 and 1 µM inhibitor concentration was performed by Nanosyn (www.nanosyn.com).

MAP4K4 = target: T3, MAP4K4 (Homo sapiens, UniProt O95819); test: Nanosyn kinase profiling; type: biochemical; conditions: read-out: Percentage inhibition
T3 construct: purchased Nanosyn (enzymatic panel); SGC in-house recombinant human kinases (DSF panel); Invitrogen (ALK1-6)
Description: as §1, §2

MINK = target: T4, MINK (Homo sapiens, UniProt Q8N4C8); test: Nanosyn kinase profiling; type: biochemical; conditions: read-out: Percentage inhibition
T4 construct: purchased Nanosyn (enzymatic panel); SGC in-house recombinant human kinases (DSF panel); Invitrogen (ALK1-6)
Description: as §1, §2

BRAF = target: T5, BRAF (Homo sapiens, UniProt P15056); test: Nanosyn kinase profiling; type: biochemical; conditions: read-out: Percentage inhibition
T5 construct: purchased Nanosyn (enzymatic panel); SGC in-house recombinant human kinases (DSF panel); Invitrogen (ALK1-6)
Description: as §1, §2

FLT3 = target: T6, FLT3 (Homo sapiens, UniProt P36888); test: Nanosyn kinase profiling; type: biochemical; conditions: read-out: Percentage inhibition
T6 construct: purchased Nanosyn (enzymatic panel); SGC in-house recombinant human kinases (DSF panel); Invitrogen (ALK1-6)
Description: as §1, §2

ALK4 = target: T7, ALK4 (Homo sapiens, UniProt P36896); test: In vitro kinase assay ([γ-32P]ATP); type: biochemical; conditions: at the Km value of ATP; triplicate
T7 construct: purchased Invitrogen
T7 sequence (P36896 24-505): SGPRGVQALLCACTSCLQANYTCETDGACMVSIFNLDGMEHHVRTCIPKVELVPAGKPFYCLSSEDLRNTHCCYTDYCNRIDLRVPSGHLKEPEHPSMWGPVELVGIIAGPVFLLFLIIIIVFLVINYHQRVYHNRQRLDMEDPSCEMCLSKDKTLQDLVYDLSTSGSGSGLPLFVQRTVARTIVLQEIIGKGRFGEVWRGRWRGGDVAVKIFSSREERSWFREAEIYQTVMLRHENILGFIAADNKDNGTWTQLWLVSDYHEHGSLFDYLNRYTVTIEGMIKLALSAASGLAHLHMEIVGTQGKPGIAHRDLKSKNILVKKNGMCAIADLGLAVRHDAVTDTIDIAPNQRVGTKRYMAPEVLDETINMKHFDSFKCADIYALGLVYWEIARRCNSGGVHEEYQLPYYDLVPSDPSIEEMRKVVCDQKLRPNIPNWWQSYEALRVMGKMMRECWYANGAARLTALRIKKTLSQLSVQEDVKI
Description: (§3) Inhibitors were added at concentrations between 0 and 10 µM in kinase reaction buffer and tested in triplicate.

ALK6 = target: T8, ALK6 (Homo sapiens, UniProt O00238); test: In vitro kinase assay ([γ-32P]ATP); type: biochemical; conditions: at the Km value of ATP; triplicate
T8 construct: purchased Nanosyn (enzymatic panel); SGC in-house recombinant human kinases (DSF panel); Invitrogen (ALK1-6)
Description: as §3

ALK3 = target: T9, ALK3 (Homo sapiens, UniProt P36894); test: In vitro kinase assay ([γ-32P]ATP); type: biochemical; conditions: at the Km value of ATP; triplicate
T9 construct: purchased Nanosyn (enzymatic panel); SGC in-house recombinant human kinases (DSF panel); Invitrogen (ALK1-6)
Description: as §3

ALK1 = target: T10, ALK1 (Homo sapiens, UniProt P37023); test: In vitro kinase assay ([γ-32P]ATP); type: biochemical; conditions: at the Km value of ATP; triplicate
T10 construct: purchased Nanosyn (enzymatic panel); SGC in-house recombinant human kinases (DSF panel); Invitrogen (ALK1-6)
Description: as §3

T6 sequence (P36888 27-993): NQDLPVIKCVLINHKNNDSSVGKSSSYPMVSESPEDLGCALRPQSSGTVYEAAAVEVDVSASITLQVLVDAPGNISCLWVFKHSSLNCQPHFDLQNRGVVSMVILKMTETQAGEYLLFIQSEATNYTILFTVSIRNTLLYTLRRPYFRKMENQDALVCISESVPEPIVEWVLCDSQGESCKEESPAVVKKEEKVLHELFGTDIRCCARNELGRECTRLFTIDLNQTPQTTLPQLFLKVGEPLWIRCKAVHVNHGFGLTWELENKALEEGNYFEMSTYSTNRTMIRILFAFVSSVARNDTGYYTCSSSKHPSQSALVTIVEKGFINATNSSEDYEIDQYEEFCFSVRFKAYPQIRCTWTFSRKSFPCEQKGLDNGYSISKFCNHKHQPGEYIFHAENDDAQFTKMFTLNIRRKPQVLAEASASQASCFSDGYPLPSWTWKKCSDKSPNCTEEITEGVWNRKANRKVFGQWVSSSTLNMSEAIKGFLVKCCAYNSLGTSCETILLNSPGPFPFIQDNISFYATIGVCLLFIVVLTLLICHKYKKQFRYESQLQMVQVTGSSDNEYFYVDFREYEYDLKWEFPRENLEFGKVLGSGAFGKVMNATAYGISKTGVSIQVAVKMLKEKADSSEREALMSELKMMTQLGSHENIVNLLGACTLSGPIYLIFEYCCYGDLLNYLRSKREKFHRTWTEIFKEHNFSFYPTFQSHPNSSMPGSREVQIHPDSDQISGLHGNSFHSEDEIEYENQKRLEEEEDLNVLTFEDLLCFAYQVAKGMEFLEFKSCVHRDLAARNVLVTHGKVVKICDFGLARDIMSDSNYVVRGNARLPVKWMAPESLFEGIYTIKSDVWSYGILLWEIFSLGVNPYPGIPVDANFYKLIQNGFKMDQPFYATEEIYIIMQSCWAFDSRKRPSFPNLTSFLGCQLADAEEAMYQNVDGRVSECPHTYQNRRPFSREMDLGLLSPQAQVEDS
T5 sequence (P15056 whole entry): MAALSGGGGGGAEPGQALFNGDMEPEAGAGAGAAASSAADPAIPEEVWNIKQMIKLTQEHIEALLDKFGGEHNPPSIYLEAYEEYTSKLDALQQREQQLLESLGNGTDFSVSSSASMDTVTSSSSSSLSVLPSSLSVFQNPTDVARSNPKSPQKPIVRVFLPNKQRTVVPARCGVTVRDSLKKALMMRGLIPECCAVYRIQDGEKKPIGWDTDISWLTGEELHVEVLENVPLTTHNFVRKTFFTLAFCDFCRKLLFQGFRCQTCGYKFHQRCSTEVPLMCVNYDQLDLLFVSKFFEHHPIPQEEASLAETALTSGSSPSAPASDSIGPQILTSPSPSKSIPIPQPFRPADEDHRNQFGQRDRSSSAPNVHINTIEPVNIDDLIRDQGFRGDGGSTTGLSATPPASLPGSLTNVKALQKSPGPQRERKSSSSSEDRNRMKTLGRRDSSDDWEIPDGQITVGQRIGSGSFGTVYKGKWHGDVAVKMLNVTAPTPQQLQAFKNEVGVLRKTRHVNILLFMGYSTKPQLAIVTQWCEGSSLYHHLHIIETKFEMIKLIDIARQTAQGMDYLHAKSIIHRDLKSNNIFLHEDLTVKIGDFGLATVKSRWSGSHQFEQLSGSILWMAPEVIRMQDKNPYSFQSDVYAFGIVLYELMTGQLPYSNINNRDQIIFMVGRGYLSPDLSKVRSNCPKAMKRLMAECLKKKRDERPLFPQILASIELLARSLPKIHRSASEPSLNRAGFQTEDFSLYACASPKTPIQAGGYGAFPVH
T3 sequence (O95819 whole entry): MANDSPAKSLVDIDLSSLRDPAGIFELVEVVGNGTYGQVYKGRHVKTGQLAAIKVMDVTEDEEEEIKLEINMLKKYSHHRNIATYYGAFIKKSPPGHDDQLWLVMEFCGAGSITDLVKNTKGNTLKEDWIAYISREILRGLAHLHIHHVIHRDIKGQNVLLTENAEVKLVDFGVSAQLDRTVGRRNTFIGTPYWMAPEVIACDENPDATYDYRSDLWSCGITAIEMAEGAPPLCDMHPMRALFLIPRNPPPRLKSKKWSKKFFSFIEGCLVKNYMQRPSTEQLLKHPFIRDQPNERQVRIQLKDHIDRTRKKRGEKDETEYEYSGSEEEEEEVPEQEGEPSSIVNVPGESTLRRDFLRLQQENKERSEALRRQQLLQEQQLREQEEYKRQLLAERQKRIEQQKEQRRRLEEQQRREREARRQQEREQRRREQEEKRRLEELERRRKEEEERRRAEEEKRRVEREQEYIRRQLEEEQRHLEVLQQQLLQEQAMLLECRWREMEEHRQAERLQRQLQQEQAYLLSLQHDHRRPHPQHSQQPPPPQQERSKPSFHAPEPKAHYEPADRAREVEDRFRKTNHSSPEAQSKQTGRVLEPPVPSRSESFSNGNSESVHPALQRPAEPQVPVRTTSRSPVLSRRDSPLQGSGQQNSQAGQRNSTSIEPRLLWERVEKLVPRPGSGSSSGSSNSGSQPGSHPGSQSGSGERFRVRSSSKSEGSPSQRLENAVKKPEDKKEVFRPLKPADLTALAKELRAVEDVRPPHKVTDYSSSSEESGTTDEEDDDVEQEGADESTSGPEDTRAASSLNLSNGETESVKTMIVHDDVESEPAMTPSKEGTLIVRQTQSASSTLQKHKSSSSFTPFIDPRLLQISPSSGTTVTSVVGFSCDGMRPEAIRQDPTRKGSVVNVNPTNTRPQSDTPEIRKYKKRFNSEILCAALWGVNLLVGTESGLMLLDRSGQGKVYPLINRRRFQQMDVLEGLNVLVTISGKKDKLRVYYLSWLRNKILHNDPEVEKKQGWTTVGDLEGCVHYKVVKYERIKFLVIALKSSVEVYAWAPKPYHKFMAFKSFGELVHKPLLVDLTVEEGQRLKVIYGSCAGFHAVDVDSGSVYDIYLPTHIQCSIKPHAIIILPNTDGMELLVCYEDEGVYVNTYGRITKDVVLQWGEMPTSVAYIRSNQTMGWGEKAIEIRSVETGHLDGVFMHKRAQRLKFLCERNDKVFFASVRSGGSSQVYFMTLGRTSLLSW
T4 sequence (Q8N4C8 whole entry): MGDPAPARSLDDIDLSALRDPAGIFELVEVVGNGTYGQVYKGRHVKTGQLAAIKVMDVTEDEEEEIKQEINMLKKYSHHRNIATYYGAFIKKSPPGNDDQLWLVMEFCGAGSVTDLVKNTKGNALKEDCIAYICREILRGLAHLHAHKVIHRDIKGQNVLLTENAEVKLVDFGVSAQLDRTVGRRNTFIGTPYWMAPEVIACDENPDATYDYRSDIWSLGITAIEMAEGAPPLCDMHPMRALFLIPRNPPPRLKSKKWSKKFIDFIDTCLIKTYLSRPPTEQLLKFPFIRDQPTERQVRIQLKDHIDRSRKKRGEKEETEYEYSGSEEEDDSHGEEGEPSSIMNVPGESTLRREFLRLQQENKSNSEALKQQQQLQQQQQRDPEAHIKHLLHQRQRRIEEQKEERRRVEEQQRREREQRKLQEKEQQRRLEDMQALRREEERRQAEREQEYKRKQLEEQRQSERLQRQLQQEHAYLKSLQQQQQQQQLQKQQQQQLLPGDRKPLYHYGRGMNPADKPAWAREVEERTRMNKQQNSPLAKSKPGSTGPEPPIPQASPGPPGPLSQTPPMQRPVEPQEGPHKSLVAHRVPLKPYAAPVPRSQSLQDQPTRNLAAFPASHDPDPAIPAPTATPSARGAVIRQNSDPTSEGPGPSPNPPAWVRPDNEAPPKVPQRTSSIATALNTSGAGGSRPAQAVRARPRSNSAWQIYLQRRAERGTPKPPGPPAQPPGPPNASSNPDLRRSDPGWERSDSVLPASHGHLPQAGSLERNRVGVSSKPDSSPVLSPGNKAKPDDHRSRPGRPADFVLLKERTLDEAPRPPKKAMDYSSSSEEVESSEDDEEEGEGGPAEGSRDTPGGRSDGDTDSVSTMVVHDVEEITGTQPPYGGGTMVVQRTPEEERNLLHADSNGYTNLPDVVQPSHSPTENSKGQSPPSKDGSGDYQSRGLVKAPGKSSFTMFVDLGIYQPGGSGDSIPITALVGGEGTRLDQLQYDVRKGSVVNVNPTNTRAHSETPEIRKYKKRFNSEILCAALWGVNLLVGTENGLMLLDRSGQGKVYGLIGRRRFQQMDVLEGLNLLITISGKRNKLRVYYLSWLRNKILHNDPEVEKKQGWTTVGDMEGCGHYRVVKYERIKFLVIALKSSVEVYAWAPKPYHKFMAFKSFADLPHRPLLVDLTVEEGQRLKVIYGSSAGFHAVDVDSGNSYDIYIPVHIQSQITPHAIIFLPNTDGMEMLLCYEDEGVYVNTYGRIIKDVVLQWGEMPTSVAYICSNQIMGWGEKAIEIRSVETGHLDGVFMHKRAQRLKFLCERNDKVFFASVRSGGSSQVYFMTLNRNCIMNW
T10 sequence (P37023 22-503): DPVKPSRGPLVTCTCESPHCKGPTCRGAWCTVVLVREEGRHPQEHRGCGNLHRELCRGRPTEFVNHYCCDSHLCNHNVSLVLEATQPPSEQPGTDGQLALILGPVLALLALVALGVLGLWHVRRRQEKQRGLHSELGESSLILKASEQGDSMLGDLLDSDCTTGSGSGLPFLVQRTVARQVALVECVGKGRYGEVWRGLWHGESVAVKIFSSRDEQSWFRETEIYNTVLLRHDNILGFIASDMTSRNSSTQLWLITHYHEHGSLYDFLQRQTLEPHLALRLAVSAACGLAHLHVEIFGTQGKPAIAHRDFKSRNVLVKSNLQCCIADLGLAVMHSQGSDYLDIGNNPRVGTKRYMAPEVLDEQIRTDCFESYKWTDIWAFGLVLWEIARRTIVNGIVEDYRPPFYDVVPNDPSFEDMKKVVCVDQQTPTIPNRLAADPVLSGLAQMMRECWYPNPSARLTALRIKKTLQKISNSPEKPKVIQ

Row | inhibition at 0.1 µM (FMS; 0.1 µM inhibitor) | inhibition at 1 µM (FMS; 1 µM inhibitor) | inhibition at 0.1 µM (MAP4K4; 0.1 µM inhibitor) | inhibition at 1 µM (MAP4K4; 1 µM inhibitor) | inhibition at 0.1 µM (MINK; 0.1 µM inhibitor) | inhibition at 1 µM (MINK; 1 µM inhibitor) | inhibition at 0.1 µM (BRAF; 0.1 µM inhibitor) | inhibition at 1 µM (BRAF; 1 µM inhibitor) | inhibition at 0.1 µM (FLT3; 0.1 µM inhibitor) | inhibition at 1 µM (FLT3; 1 µM inhibitor) | IC50 (ALK4) | IC50 (ALK6) | IC50 (ALK3) | IC50 (ALK1) | SMILES | concentration giving severely dorsalized phenotype [1] | concentration at which loss of mRFP protein was evident [2] | inhibition at 0.1 µM (GRK7) | inhibition at 1 µM (GRK7)
1 | 6.1% | 33% | 46% | 89% | 36% | 86% | 0% | 12% | -2% | 0.4% | 302 nM | 6.4 nM | 34.4 nM | 1.8 nM and 1 to 2 nM | COc1cc(-c2cc(-c3cccc(O)c3)cnc2N)cc(OC)c1OC [K02288, 3-[6-amino-5-(3,4,5-trimethoxy-phenyl)-pyridin-3-yl]-phenol] | 8 to 10 µM | 8 to 10 µM | 0.2% | -3%
2 |  |  |  |  |  |  |  |  |  |  |  |  |  |  | c1ccc2c(-c3cnn4cc(-c5ccc(N6CCNCC6)cc5)cnc34)ccnc2c1 [LDN-193189] |  |  | 1.8% | 0.8%
